Results from US20030191144A1, “Compounds, compositions and methods for modulating beta-amyloid production” (Active Pass Pharmaceuticals, Inc., priority 2001, published 2003).

What was measured:
[1] = system: Aβ42 production and/or release from SM-4 cells; experiment: Aβ42 ELISA of culture media from SM-4 cells; assay type: cell-based; conditions: 16 hrs, p<0.001
Experimental: Cell Lines and Pharmacological Treatments. 293 EBNA cells (InVitrogen, Carlsbad, Calif.) stably transfected with Swedish mutant β-Amyloid Precursor Protein -695 (SM4 cells) were routinely maintained in DMEM supplemented with sodium pyruvate (1 mM) and 10% fetal bovine serum. Cells were seeded into poly-D-Lysine (SIGMA) coated 6-well plates at a density of 5-7×10^5 cells per well. Subsequently, the cells were rinsed in 1 ml of PBS and treated with 10-500 μM of pirinixic acid in serum-free/phenol red-free DMEM for 16 hours.
(§1) Aβ Detection and Standardization. After the pharmacological treatment, the exposure media was collected and supplemented with 10% sample treatment buffer (40 mM sodium phosphate (pH 7.4), 40 mM triethanolamine, 0.1% Triton X-100, 200 mM NaCl, 2 mM EGTA, 0.1% Sodium azide), and assayed for either Aβ40 or Aβ42 by a calorimetric ELISA as per the manufacturer's protocol (Biosource International Inc, California). The cells were lysed in 0.1% Triton X-100 in PBS supplemented with 5 μM propridium iodide (Molecular Probes, Eugene, Oreg.) and incubated at 37° C. for 30 minutes prior to measuring fluorescence. Aβ40 and Aβ42 were standardized against propridium iodide fluorescence as a measure of total cell number. […]
as §1, with “After” for “Aβ Detection and Standardization. After”
After the pharmacological treatment, the exposure media was collected and supplemented with 10% sample treatment buffer (40 mM sodium phosphate (pH 7.4), 40 mM triethanolamine, 0.1% Triton X-100, 200 mM NaCl, 2 mM EGTA, 0.1% Sodium azide), and assayed for either Aβ40 or Aβ42 by a colorimetric ELISA as per the manufacturer's protocol (Biosource International Inc, California). The cells were lysed in 0.1% Triton X-100 in PBS supplemented with 5 μM propridium iodide (Molecular Probes, Eugene, Oreg.) and incubated at 37° C. for 30 minutes prior to measuring fluorescence. Aβ40 and Aβ42 were standardized against propridium iodide fluorescence as a measure of total cell number.

[2] = system: Aβ40 production and/or release from SM-4 cells; experiment: Aβ40 ELISA of culture media from SM-4 cells; assay type: cell-based; conditions: 16 hrs
Experimental: Cell Lines and Pharmacological Treatments. 293 EBNA cells (InVitrogen, Carlsbad, Calif.) stably transfected with Swedish mutant β-Amyloid Precursor Protein -695 (SM4 cells) were routinely maintained in DMEM supplemented with sodium pyruvate (1 mM) and 10% fetal bovine serum. Cells were seeded into poly-D-Lysine (SIGMA) coated 6-well plates at a density of 5-7×10^5 cells per well. Subsequently, the cells were rinsed in 1 ml of PBS and treated with 10-500 μM of pirinixic acid in serum-free/phenol red-free DMEM for 16 hours. Aβ Detection and Standardization. After the pharmacological treatment, the exposure media was collected and supplemented with 10% sample treatment buffer (40 mM sodium phosphate (pH 7.4), 40 mM triethanolamine, 0.1% Triton X-100, 200 mM NaCl, 2 mM EGTA, 0.1% Sodium azide), and assayed for either Aβ40 or Aβ42 by a calorimetric ELISA as per the manufacturer's protocol (Biosource International Inc, California). The cells were lysed in 0.1% Triton X-100 in PBS supplemented with 5 μM propridium iodide (Molecular Probes, Eugene, Oreg.) and incubated at 37° C. for 30 minutes prior to measuring fluorescence. Aβ40 and Aβ42 were standardized against propridium iodide fluorescence as a measure of total cell number. 293 EBNA cells (InVitrogen, Carlsbad, Calif.) stably transfected with Swedish mutant β-Amyloid Precursor Protein -695 (SM4 cells) were routinely maintained in DMEM supplemented with sodium pyruvate (1 mM) and 10% fetal bovine serum. […] The cells were lysed in 0.1% Triton X-100 in PBS supplemented with 5 μM propridium iodide (Molecular Probes, Eugene, Oreg.) and incubated at 37° C. for 30 minutes prior to measuring fluorescence. Aβ40 and Aβ42 were standardized against propridium iodide fluorescence as a measure of total cell number. […] The cells were lysed in 0.1% Triton X-100 in PBS supplemented with 5 μM propridium iodide (Molecular Probes, Eugene, Oreg.) and incubated at 37° C. for 30 minutes prior to measuring fluorescence. Aβ40 and Aβ42 were standardized against propridium iodide fluorescence as a measure of total cell number.

| Structure (SMILES) | inhibition of Aβ42 secretion ([1]; 300 μM) | effect on Aβ40 ([2]; 50-300 μM) | inhibition of Aβ42 secretion ([1]; 100 μM) | effect on Aβ40 ([2]; 5-100 μM) |
| --- | --- | --- | --- | --- |
| Cc1cccc(N(C)c2cc(Cl)nc(SCC(=O)O)n2)c1C [Compound 1] | 66% | without altering Aβ40 | – | – |
| CCN(c1cc(Cl)nc(SCC(=O)O)n1)c1cccc(C)c1C [Compound 2, {4-chloro-6-[(2,3-dimethylphenyl)ethylamino]pyrimidin-2-yl-sulfanyl}acetic Acid] | – | – | 80% | without altering Aβ40 |
